Data reported in patent publication US20020111274A1, “1-alkyl-3-[1-(substituted phenyl) benzotriazol-6-yl] uracils” (BASF Aktiengesellschaft, priority 2000, published 2002).

Legend:
Parameters in all cases: scale not given here
ABUTH Velvetleaf [1] = test: Postemergence herbicidal evaluation, ABUTH; type: in vivo, Abutilon theophrasti, Medic.; conditions: postemergence spray, rated about two-three weeks after treatment
Summary of the method: (§1)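 For this test, compound in an 80/20 acetone/water vehicle with 1.0% seed oil was sprayed over two-week-old seedlings at about 0.006 to 0.400 kg per hectare. Injury was assessed visually two to three weeks on.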

AMBEL Ragweed, Common [2] = test: Postemergence herbicidal evaluation, AMBEL; type: in vivo, Ambrosia artemisifolia, L.; conditions: postemergence spray, rated about two-three weeks after treatment
Summary of the method: as §1

CASOB Sicklepod [3] = test: Postemergence herbicidal evaluation, CASOB; type: in vivo, Cassia obtusifolia, L.; conditions: postemergence spray, rated about two-three weeks after treatment
Summary of the method: as §1

[4] = tested on: CHEAL Lambsquarters, Common; test: Postemergence herbicidal evaluation, CHEAL; type: in vivo, Chenopodium album, L.; conditions: postemergence spray, rated about two-three weeks after treatment
Summary of the method: as §1

ECHOG Barnyardgrass [5] = test: Postemergence herbicidal evaluation, ECHOG; type: in vivo, Echinochloa crus-galli, (L.) Beau; conditions: postemergence spray, rated about two-three weeks after treatment
Summary of the method: as §1

GALAP Galium [6] = test: Postemergence herbicidal evaluation, GALAP; type: in vivo, Galium aparine; conditions: postemergence spray, rated about two-three weeks after treatment
Summary of the method: as §1

[7] = tested on: IPOHE Morningglory, Ivyleaf; test: Postemergence herbicidal evaluation, IPOHE; type: in vivo, Ipomoea hederacea, (L.) Jacq.; conditions: postemergence spray, rated about two-three weeks after treatment
Summary of the method: as §1

SETVI Foxtail, Green [8] = test: Postemergence herbicidal evaluation, SETVI; type: in vivo, Setaria viridis, (L.) Beau; conditions: postemergence spray, rated about two-three weeks after treatment
Summary of the method: as §1

GLXMAW Soybean, Williams [9] = test: Postemergence herbicidal evaluation, GLXMAW; type: in vivo, Glycine max, (L.) Merr. cv Williams; conditions: postemergence spray, rated about two-three weeks after treatment
Summary of the method: as §1

[10] = tested on: TRZAWR Wheat, Winter, cv Riband; test: Postemergence herbicidal evaluation, TRZAWR; type: in vivo, Triticum aestivum; conditions: postemergence spray, rated about two-three weeks after treatment
Summary of the method: as §1

ORYSAT Rice, Tebonnet [11] = test: Postemergence herbicidal evaluation, ORYSAT; type: in vivo, Oryza sativa, (L.); conditions: postemergence spray, rated about two-three weeks after treatment
Summary of the method: as §1

ZEAMX Corn, Field [12] = test: Postemergence herbicidal evaluation, ZEAMX; type: in vivo, Zea mays, L. (Sammel-Bezeichnung); conditions: postemergence spray, rated about two-three weeks after treatment
Summary of the method: as §1

ABUTH Velvetleaf [13] = test: Preemergence herbicidal evaluation, ABUTH; type: in vivo, Abutilon theophrasti, Medic.; conditions: preemergence
Summary of the method: (§2)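 Compound applied preemergence as an aqueous acetone spray onto freshly planted cups, dose equivalent approx. 0.013 to 0.800 kg/ha. Evaluation by rating at weeks 4–5.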

AMBEL Ragweed, Common [14] = test: Preemergence herbicidal evaluation, AMBEL; type: in vivo, Ambrosia artemisifolia, L.; conditions: preemergence
Summary of the method: as §2

CASOB Sicklepod [15] = test: Preemergence herbicidal evaluation, CASOB; type: in vivo, Cassia obtusifolia, L.; conditions: preemergence
Summary of the method: as §2

[16] = tested on: CHEAL Lambsquarters, Common; test: Preemergence herbicidal evaluation, CHEAL; type: in vivo, Chenopodium album, L.; conditions: preemergence
Summary of the method: as §2

ECHOG Barnyardgrass [17] = test: Preemergence herbicidal evaluation, ECHOG; type: in vivo, Echinochloa crus-galli, (L.) Beau; conditions: preemergence
Summary of the method: as §2

GALAP Galium [18] = test: Preemergence herbicidal evaluation, GALAP; type: in vivo, Galium aparine; conditions: preemergence
Summary of the method: as §2

[19] = tested on: IPOHE Morningglory, Ivyleaf; test: Preemergence herbicidal evaluation, IPOHE; type: in vivo, Ipomoea hederacea, (L.) Jacq.; conditions: preemergence
Summary of the method: as §2

SETVI Foxtail, Green [20] = test: Preemergence herbicidal evaluation, SETVI; type: in vivo, Setaria viridis, (L.) Beau; conditions: preemergence
Summary of the method: as §2

GLXMAW Soybean, Williams [21] = test: Preemergence herbicidal evaluation, GLXMAW; type: in vivo, Glycine max, (L.) Merr. cv Williams; conditions: preemergence
Summary of the method: as §2

[22] = tested on: TRZAWR Wheat, Winter, cv Riband; test: Preemergence herbicidal evaluation, TRZAWR; type: in vivo, Triticum aestivum; conditions: preemergence
Summary of the method: as §2

ORYSAT Rice, Tebonnet [23] = test: Preemergence herbicidal evaluation, ORYSAT; type: in vivo, Oryza sativa, (L.); conditions: preemergence
Summary of the method: as §2

ZEAMX Corn, Field [24] = test: Preemergence herbicidal evaluation, ZEAMX; type: in vivo, Zea mays, L. (Sammel-Bezeichnung); conditions: preemergence
Summary of the method: as §2

COc1ccc(-n2nnc3cc(F)c(-n4c(=O)cc(C(F)(F)F)n(C)c4=O)cc32)cc1 [Example 27]
Postemergence herbicidal rating ABUTH (ABUTH Velvetleaf [1]; 0.008 kg/ha): 9.0
Postemergence herbicidal rating ABUTH (ABUTH Velvetleaf [1]; 0.016 kg/ha): 9.0
Postemergence herbicidal rating ABUTH (ABUTH Velvetleaf [1]; 0.032 kg/ha): 9.0
Postemergence herbicidal rating AMBEL (AMBEL Ragweed, Common [2]; 0.008 kg/ha): 5.0
Postemergence herbicidal rating AMBEL (AMBEL Ragweed, Common [2]; 0.016 kg/ha): 9.0
Postemergence herbicidal rating AMBEL (AMBEL Ragweed, Common [2]; 0.032 kg/ha): 9.0
Postemergence herbicidal rating CASOB (CASOB Sicklepod [3]; 0.008 kg/ha): 1.0
Postemergence herbicidal rating CASOB (CASOB Sicklepod [3]; 0.016 kg/ha): 1.0
Postemergence herbicidal rating CASOB (CASOB Sicklepod [3]; 0.032 kg/ha): 6.0
Postemergence herbicidal rating CHEAL ([4]; 0.008 kg/ha): 4.0
Postemergence herbicidal rating CHEAL ([4]; 0.016 kg/ha): 7.0
Postemergence herbicidal rating CHEAL ([4]; 0.032 kg/ha): 9.0
Postemergence herbicidal rating ECHCG (ECHOG Barnyardgrass [5]; 0.008 kg/ha): 1.0
Postemergence herbicidal rating ECHCG (ECHOG Barnyardgrass [5]; 0.016 kg/ha): 1.0
Postemergence herbicidal rating ECHCG (ECHOG Barnyardgrass [5]; 0.032 kg/ha): 2.0
Postemergence herbicidal rating GALAP (GALAP Galium [6]; 0.008 kg/ha): 1.0
Postemergence herbicidal rating GALAP (GALAP Galium [6]; 0.016 kg/ha): 4.0
Postemergence herbicidal rating GALAP (GALAP Galium [6]; 0.032 kg/ha): 9.0
Postemergence herbicidal rating IPOHE ([7]; 0.008 kg/ha): 9.0
Postemergence herbicidal rating IPOHE ([7]; 0.016 kg/ha): 9.0
Postemergence herbicidal rating IPOHE ([7]; 0.032 kg/ha): 9.0
Postemergence herbicidal rating SETVI (SETVI Foxtail, Green [8]; 0.008 kg/ha): 7.0
Postemergence herbicidal rating SETVI (SETVI Foxtail, Green [8]; 0.016 kg/ha): 4.0
Postemergence herbicidal rating SETVI (SETVI Foxtail, Green [8]; 0.032 kg/ha): 7.0
Postemergence herbicidal rating GLXMAW (GLXMAW Soybean, Williams [9]; 0.008 kg/ha): 5.0
Postemergence herbicidal rating GLXMAW (GLXMAW Soybean, Williams [9]; 0.016 kg/ha): 6.0
Postemergence herbicidal rating GLXMAW (GLXMAW Soybean, Williams [9]; 0.032 kg/ha): 6.0
Postemergence herbicidal rating TRZAWR ([10]; 0.008 kg/ha): 2.0
Postemergence herbicidal rating TRZAWR ([10]; 0.016 kg/ha): 4.0
Postemergence herbicidal rating TRZAWR ([10]; 0.032 kg/ha): 4.5
Postemergence herbicidal rating ORYSAT (ORYSAT Rice, Tebonnet [11]; 0.008 kg/ha): 2.5
Postemergence herbicidal rating ORYSAT (ORYSAT Rice, Tebonnet [11]; 0.016 kg/ha): 4.5
Postemergence herbicidal rating ORYSAT (ORYSAT Rice, Tebonnet [11]; 0.032 kg/ha): 4.5
Postemergence herbicidal rating ZEAMX (ZEAMX Corn, Field [12]; 0.008 kg/ha): 4.5
Postemergence herbicidal rating ZEAMX (ZEAMX Corn, Field [12]; 0.016 kg/ha): 5.0
Postemergence herbicidal rating ZEAMX (ZEAMX Corn, Field [12]; 0.032 kg/ha): 5.5
ABUTH herbicidal rating (ABUTH Velvetleaf [13]; rate 0.032 kg/ha): 6.0
ABUTH herbicidal rating (ABUTH Velvetleaf [13]; rate 0.062 kg/ha): 9.0
ABUTH herbicidal rating (ABUTH Velvetleaf [13]; rate 0.125 kg/ha): 9.0
AMBEL herbicidal rating (AMBEL Ragweed, Common [14]; rate 0.016 kg/ha): 0.0
AMBEL herbicidal rating (AMBEL Ragweed, Common [14]; rate 0.032 kg/ha): 2.0
AMBEL herbicidal rating (AMBEL Ragweed, Common [14]; rate 0.062 kg/ha): 7.0
AMBEL herbicidal rating (AMBEL Ragweed, Common [14]; rate 0.125 kg/ha): 9.0
CASOB herbicidal rating (CASOB Sicklepod [15]; rate 0.016 kg/ha): 0.0
CASOB herbicidal rating (CASOB Sicklepod [15]; rate 0.032 kg/ha): 1.0
CASOB herbicidal rating (CASOB Sicklepod [15]; rate 0.062 kg/ha): 2.0
CASOB herbicidal rating (CASOB Sicklepod [15]; rate 0.125 kg/ha): 9.0
CHEAL herbicidal rating ([16]; rate 0.016 kg/ha): 9.0
CHEAL herbicidal rating ([16]; rate 0.032 kg/ha): 9.0
CHEAL herbicidal rating ([16]; rate 0.062 kg/ha): 9.0
CHEAL herbicidal rating ([16]; rate 0.125 kg/ha): 9.0
ECHCG herbicidal rating (ECHOG Barnyardgrass [17]; rate 0.016 kg/ha): 1.0
ECHCG herbicidal rating (ECHOG Barnyardgrass [17]; rate 0.032 kg/ha): 4.0
ECHCG herbicidal rating (ECHOG Barnyardgrass [17]; rate 0.062 kg/ha): 9.0
ECHCG herbicidal rating (ECHOG Barnyardgrass [17]; rate 0.125 kg/ha): 9.0
GALAP herbicidal rating (GALAP Galium [18]; rate 0.016 kg/ha): 1.0
GALAP herbicidal rating (GALAP Galium [18]; rate 0.032 kg/ha): 2.0
GALAP herbicidal rating (GALAP Galium [18]; rate 0.062 kg/ha): 9.0
GALAP herbicidal rating (GALAP Galium [18]; rate 0.125 kg/ha): 9.0
IPOHE herbicidal rating ([19]; rate 0.016 kg/ha): 0.0
IPOHE herbicidal rating ([19]; rate 0.032 kg/ha): 1.0
IPOHE herbicidal rating ([19]; rate 0.062 kg/ha): 1.0
IPOHE herbicidal rating ([19]; rate 0.125 kg/ha): 5.0
SETVI herbicidal rating (SETVI Foxtail, Green [20]; rate 0.016 kg/ha): 9.0
SETVI herbicidal rating (SETVI Foxtail, Green [20]; rate 0.032 kg/ha): 9.0
SETVI herbicidal rating (SETVI Foxtail, Green [20]; rate 0.062 kg/ha): 9.0
SETVI herbicidal rating (SETVI Foxtail, Green [20]; rate 0.125 kg/ha): 9.0
GLXMAW herbicidal rating (GLXMAW Soybean, Williams [21]; rate 0.016 kg/ha): 1.0
GLXMAW herbicidal rating (GLXMAW Soybean, Williams [21]; rate 0.032 kg/ha): 1.0
GLXMAW herbicidal rating (GLXMAW Soybean, Williams [21]; rate 0.062 kg/ha): 5.0
GLXMAW herbicidal rating (GLXMAW Soybean, Williams [21]; rate 0.125 kg/ha): 9.0
TRZAWR herbicidal rating ([22]; rate 0.016 kg/ha): 1.0
TRZAWR herbicidal rating ([22]; rate 0.032 kg/ha): 2.0
TRZAWR herbicidal rating ([22]; rate 0.062 kg/ha): 3.0
TRZAWR herbicidal rating ([22]; rate 0.125 kg/ha): 2.0
ORYSAT herbicidal rating (ORYSAT Rice, Tebonnet [23]; rate 0.016 kg/ha): 1.0
ORYSAT herbicidal rating (ORYSAT Rice, Tebonnet [23]; rate 0.032 kg/ha): 2.0
ORYSAT herbicidal rating (ORYSAT Rice, Tebonnet [23]; rate 0.062 kg/ha): 5.0
ORYSAT herbicidal rating (ORYSAT Rice, Tebonnet [23]; rate 0.125 kg/ha): 6.0
ZEAMX herbicidal rating (ZEAMX Corn, Field [24]; rate 0.016 kg/ha): 2.0
ZEAMX herbicidal rating (ZEAMX Corn, Field [24]; rate 0.032 kg/ha): 4.0
ZEAMX herbicidal rating (ZEAMX Corn, Field [24]; rate 0.062 kg/ha): 7.0
ZEAMX herbicidal rating (ZEAMX Corn, Field [24]; rate 0.125 kg/ha): 7.0
